Data: PubChem BioAssay AID330 (DTP/NCI, 2004)
Several values for one entry are separate records, joined by “and”; a condition that tells them apart may be missing. Equal values may be shown once. Inconclusive results and toxic doses are left out. How the source made its calls: active means survival T/C of 150% or more; inactive means T/C below 125% in these data.

Tested on: P388 leukemia ip, CD2F1 mice, survival T/C
Experiment: NCI In Vivo Anticancer Drug Screen. Data for tumor model P388 Leukemia (intraperitoneal) in CD2F1 (CDF1) mice
Conditions: endpoint: median survival time, higher = longer survival
Method in brief: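 Mice carrying the transplanted tumor received test compound or vehicle. Survival was recorded in each group, and the value is the treated-group measurement divided by that of the vehicle-treated control group.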

[1] = dose: 60.0 mg/kg/injection, schedule: Q01DX005 (ip), vehicle: Klucel (hydroxypropylcellulose) (HPC)
[2] = dose: 120.0 mg/kg/injection, schedule: Q01DX005 (ip), vehicle: Klucel (hydroxypropylcellulose) (HPC)
[3] = dose: 50.0 mg/kg/injection, schedule: Q01DX005 (ip), vehicle: saline with Tween-80
[4] = dose: 100.0 mg/kg/injection, schedule: Q01DX005 (ip), vehicle: saline with Tween-80
[5] = dose: 60.0 mg/kg/injection, schedule: Q01DX005 (ip), vehicle: saline with Tween-80
[6] = dose: 120.0 mg/kg/injection, schedule: Q01DX005 (ip), vehicle: saline with Tween-80
[7] = dose: 240.0 mg/kg/injection, schedule: Q01DX005 (ip), vehicle: saline with Tween-80
[8] = dose: 3.12 mg/kg/injection, schedule: Q01DX009 (ip), vehicle: Klucel (hydroxypropylcellulose) (HPC)
[9] = dose: 6.25 mg/kg/injection, schedule: Q01DX009 (ip), vehicle: Klucel (hydroxypropylcellulose) (HPC)
[10] = dose: 100.0 mg/kg/injection, schedule: Q04DX003 (ip), vehicle: saline with Tween-80
[11] = dose: 200.0 mg/kg/injection, schedule: Q04DX003 (ip), vehicle: saline with Tween-80
[12] = dose: 400.0 mg/kg/injection, schedule: Q04DX003 (ip), vehicle: saline with Tween-80

Measured: T/C

COc1cc(CC2COC(O)C2(O)Cc2ccc(O)c(OC)c2)ccc1O (stereo unspecified)
inactive: dose: 8.25 mg/kg/injection, schedule: Q01DX005 (ip), vehicle: Klucel (hydroxypropylcellulose) (HPC) 101 % of control | dose: 16.5 mg/kg/injection, schedule: Q01DX005 (ip), vehicle: Klucel (hydroxypropylcellulose) (HPC) 101 % of control | dose: 33.0 mg/kg/injection, schedule: Q01DX005 (ip), vehicle: Klucel (hydroxypropylcellulose) (HPC) 106 % of control | dose: 66.0 mg/kg/injection, schedule: Q01DX005 (ip), vehicle: Klucel (hydroxypropylcellulose) (HPC) 92 % of control

Nc1nc(N)c2cc(NCc3ccccc3Cl)ccc2n1
inactive: dose: 6.25 mg/kg/injection, schedule: Q01DX001 (ip), vehicle: saline with Tween-80 100 % of control | dose: 12.5 mg/kg/injection, schedule: Q01DX001 (ip), vehicle: saline with Tween-80 112 % of control | dose: 16.5 mg/kg/injection, schedule: Q01DX009 (ip), vehicle: saline with Tween-80 104 % of control | dose: 25.0 mg/kg/injection, schedule: Q01DX001 (ip), vehicle: saline with Tween-80 104 % of control

CC1(C)OC(=O)N=C1c1ccc(Br)cc1
inactive: [1] 100 % of control | [2] 104 % of control

CCC(C)C(NC(=O)C(C)Oc1cc(Cl)c(Cl)cc1Cl)C(=O)O (stereo unspecified)
inactive: [3] 92 % of control | [4] 101 % of control

O=C(c1ccc(O)cc1)c1ccc(O)cc1O
inactive: dose: 66.0 mg/kg/injection, schedule: Q01DX001 (ip), vehicle: saline 100 % of control | dose: 150.0 mg/kg/injection, schedule: Q01DX001 (ip), vehicle: saline 88 % of control | dose: 200.0 mg/kg/injection, schedule: Q01DX001 (ip), vehicle: saline 100 % of control | dose: 400.0 mg/kg/injection, schedule: Q01DX001 (ip), vehicle: saline 100 % of control

Cc1oc(C)c2c1C(=O)N(C)C2=O
inactive: [5] 100 % of control | [6] 100 % of control | [7] 103 % of control

CC(=O)NOCC1NC(=O)C(CONC(C)=O)NC1=O (stereo unspecified)
inactive: dose: 30.0 mg/kg/injection, schedule: Q01DX005 (ip), vehicle: saline 103 % of control | [1] 105 % of control | dose: 60.0 mg/kg/injection, schedule: Q01DX005 (ip), vehicle: saline 103 % of control | [2] 115 % of control | dose: 120.0 mg/kg/injection, schedule: Q01DX005 (ip), vehicle: saline 108 % of control | dose: 240.0 mg/kg/injection, schedule: Q01DX005 (ip), vehicle: Klucel (hydroxypropylcellulose) (HPC) 120 % of control | dose: 240.0 mg/kg/injection, schedule: Q01DX005 (ip), vehicle: saline 120 % of control

O=C(Nc1cccc(Cl)c1)Nn1cnnc1
inactive: dose: 50.0 mg/kg/injection, schedule: Q01DX009 (ip), vehicle: saline 101 % of control | dose: 100.0 mg/kg/injection, schedule: Q01DX009 (ip), vehicle: saline 97 % of control | dose: 200.0 mg/kg/injection, schedule: Q01DX009 (ip), vehicle: saline 91 % of control

CC(=O)[O][Hg][c]1c(N)c(Cl)cc(C)c1F
inactive: [8] 91 % of control | [9] 86 % of control

Cc1cc(C)c(O)c(N=Nc2ccccc2)c1
inactive: [10] 105 % of control | [11] 105 % of control | [12] 105 % of control

O=c1ccs[nH]1
inactive: [8] 100 % of control | [9] 102 % of control and 104 % of control and 117 % of control | dose: 12.5 mg/kg/injection, schedule: Q01DX009 (ip), vehicle: Klucel (hydroxypropylcellulose) (HPC) 102 % of control and 114 % of control and 124 % of control | dose: 25.0 mg/kg/injection, schedule: Q01DX009 (ip), vehicle: Klucel (hydroxypropylcellulose) (HPC) 100 % of control and 90 % of control

[O-]/[N+](=C\c1ccc(Cl)cc1Cl)c1ccccc1
inactive: dose: 50.0 mg/kg/injection, schedule: Q01DX009 (ip), vehicle: Klucel (hydroxypropylcellulose) (HPC) 96 % of control | dose: 100.0 mg/kg/injection, schedule: Q01DX009 (ip), vehicle: Klucel (hydroxypropylcellulose) (HPC) 100 % of control | dose: 200.0 mg/kg/injection, schedule: Q01DX009 (ip), vehicle: Klucel (hydroxypropylcellulose) (HPC) 100 % of control

C=CC(=O)OCCN(CCCC)CCCC
inactive: dose: 50.0 mg/kg/injection, schedule: Q01DX005 (ip), vehicle: saline 103 % of control | dose: 100.0 mg/kg/injection, schedule: Q01DX005 (ip), vehicle: saline 95 % of control | dose: 200.0 mg/kg/injection, schedule: Q01DX005 (ip), vehicle: saline 97 % of control

CSC(=S)n1nc(-c2cccs2)c(N=Nc2ccccc2)c1C(F)(F)F
inactive: dose: 7.5 mg/kg/injection, schedule: Q01DX005 (ip), vehicle: saline with Tween-80 102 % of control | dose: 15.0 mg/kg/injection, schedule: Q01DX005 (ip), vehicle: saline with Tween-80 112 % of control | dose: 30.0 mg/kg/injection, schedule: Q01DX005 (ip), vehicle: saline with Tween-80 112 % of control

CCC1(c2ccc(-c3ccccc3)cc2)OC(OC(=O)NC)C=CC1=O (stereo unspecified)
inactive: [9] 98 % of control

NC(=O)Nc1ccc(/C=C\c2ccnc3ccccc23)cc1
inactive: dose: 25.0 mg/kg/injection, schedule: Q04DX003 (ip), vehicle: saline with Tween-80 96 % of control | dose: 50.0 mg/kg/injection, schedule: Q04DX003 (ip), vehicle: saline with Tween-80 93 % of control | [10] 89 % of control

CC1(C)SC2C(NC(=O)C(N)c3ccccc3)C(=O)N2C1C(=O)O (stereo unspecified)
inactive: [10] 95 % of control | dose: 150.0 mg/kg/injection, schedule: Q01DX009 (ip), vehicle: saline with Tween-80 100 % of control | [11] 100 % of control | dose: 300.0 mg/kg/injection, schedule: Q01DX009 (ip), vehicle: saline with Tween-80 109 % of control | [12] 100 % of control | dose: 600.0 mg/kg/injection, schedule: Q01DX009 (ip), vehicle: saline with Tween-80 109 % of control

CCN(CC)Cc1c(C)[nH]c2c(ccc3cc4ccccc4cc32)c1=O
inactive: dose: 100.0 mg/kg/injection, schedule: Q04DX003 (ip), vehicle: Klucel (hydroxypropylcellulose) (HPC) 94 % of control | dose: 200.0 mg/kg/injection, schedule: Q04DX003 (ip), vehicle: Klucel (hydroxypropylcellulose) (HPC) 97 % of control | dose: 400.0 mg/kg/injection, schedule: Q04DX003 (ip), vehicle: Klucel (hydroxypropylcellulose) (HPC) 96 % of control

COc1ccc(C(=O)CCc2c[nH]c3ccccc23)c(O)c1
inactive: [5] 101 % of control | [6] 112 % of control | [7] 92 % of control

CCOC(=O)Nc1cc2c(c(N)n1)N=C(c1ccc(N)cc1)CN2
inactive: dose: 25.0 mg/kg/injection, schedule: Q01DX001 (ip), vehicle: saline 117 % of control

N#CCC(=O)N/N=C(/CC1(O)C(=O)Nc2c(Cl)cc(Cl)cc21)c1ccccc1 (stereo unspecified)
inactive: [3] 102 % of control | [4] 100 % of control | dose: 200.0 mg/kg/injection, schedule: Q01DX005 (ip), vehicle: saline with Tween-80 104 % of control

COC(=O)c1cc2[n+](cc1C(=O)OC)CCc1cc3c(cc1-2)OCO3
inactive: dose: 0.63 mg/kg/injection, schedule: Q01DX009 (ip), vehicle: water 99 % of control | dose: 1.25 mg/kg/injection, schedule: Q01DX009 (ip), vehicle: water 97 % of control | dose: 2.5 mg/kg/injection, schedule: Q01DX009 (ip), vehicle: water 97 % of control | dose: 5.0 mg/kg/injection, schedule: Q01DX009 (ip), vehicle: water 106 % of control | dose: 10.0 mg/kg/injection, schedule: Q01DX009 (ip), vehicle: water 99 % of control | dose: 20.0 mg/kg/injection, schedule: Q01DX009 (ip), vehicle: water 92 % of control

COC1=CC(=O)C(c2cc(OC(C)=O)c(OC)cc2OC(C)=O)=CC1=O
inactive: dose: 6.0 mg/kg/injection, schedule: Q01DX005 (ip), vehicle: saline + Tween-80 + alcohol 108 % of control | dose: 12.0 mg/kg/injection, schedule: Q01DX005 (ip), vehicle: saline + Tween-80 + alcohol 100 % of control | dose: 25.0 mg/kg/injection, schedule: Q01DX005 (ip), vehicle: saline + Tween-80 + alcohol 105 % of control
